According to ChEMBL document CHEMBL4477234, “Potent Suppressive Effects of 1-Piperidinylimidazole Based Novel P2X7 Receptor Antagonists on Cancer Cell Migration and Invasion” (J Med Chem, 2016):
Calls of active or inactive are those of the source. The rule behind the calls is not given here.

How the values were obtained:
[1] = target: T1, P2X purinoceptor 2 (Homo sapiens) (UniProt Q9UBL9); experiment: Antagonist activity at human P2X2 receptor expressed in human 1321N1 cells assessed as inhibition of ATP-induced calcium influx at 1 uM preincubated for 30 mins prior to ATP-stimulation by calcium influx assay; type: cell-based
T1 sequence (whole entry): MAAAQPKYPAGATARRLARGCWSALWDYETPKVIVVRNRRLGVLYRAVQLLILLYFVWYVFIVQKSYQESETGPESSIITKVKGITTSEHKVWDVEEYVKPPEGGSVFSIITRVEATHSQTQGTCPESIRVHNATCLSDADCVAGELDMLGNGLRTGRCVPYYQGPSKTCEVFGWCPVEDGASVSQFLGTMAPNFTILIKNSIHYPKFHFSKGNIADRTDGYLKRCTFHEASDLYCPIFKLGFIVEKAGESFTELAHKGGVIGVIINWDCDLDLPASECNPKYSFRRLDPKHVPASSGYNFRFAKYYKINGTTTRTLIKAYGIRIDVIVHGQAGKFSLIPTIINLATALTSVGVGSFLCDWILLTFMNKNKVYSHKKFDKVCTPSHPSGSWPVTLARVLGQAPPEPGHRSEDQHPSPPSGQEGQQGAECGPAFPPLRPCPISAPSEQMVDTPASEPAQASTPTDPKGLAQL

[2] = target: T2, P2X purinoceptor 3 (Homo sapiens) (UniProt P56373); experiment: Antagonist activity at human P2X3 receptor expressed in human 1321N1 cells assessed as inhibition of ATP-induced calcium influx at 1 uM preincubated for 30 mins prior to ATP-stimulation by calcium influx assay; type: cell-based
T2 sequence (whole entry): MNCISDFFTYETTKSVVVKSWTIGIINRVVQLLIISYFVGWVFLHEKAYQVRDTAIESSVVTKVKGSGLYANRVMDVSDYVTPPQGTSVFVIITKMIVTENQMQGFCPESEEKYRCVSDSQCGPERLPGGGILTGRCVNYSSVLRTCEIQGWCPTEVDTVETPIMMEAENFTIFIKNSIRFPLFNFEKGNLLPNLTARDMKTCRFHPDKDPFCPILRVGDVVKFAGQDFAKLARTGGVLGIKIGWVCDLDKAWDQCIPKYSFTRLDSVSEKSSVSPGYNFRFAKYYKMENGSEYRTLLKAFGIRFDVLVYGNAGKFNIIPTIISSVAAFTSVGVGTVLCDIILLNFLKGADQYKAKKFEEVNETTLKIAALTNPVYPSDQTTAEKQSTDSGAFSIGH

[3] = target: T3, P2X purinoceptor 1 (Homo sapiens) (UniProt P51575); experiment: Antagonist activity at human P2X1 receptor expressed in human 1321N1 cells assessed as inhibition of ATP-induced calcium influx at 1 uM preincubated for 30 mins prior to ATP-stimulation by calcium influx assay; type: cell-based
T3 sequence (whole entry): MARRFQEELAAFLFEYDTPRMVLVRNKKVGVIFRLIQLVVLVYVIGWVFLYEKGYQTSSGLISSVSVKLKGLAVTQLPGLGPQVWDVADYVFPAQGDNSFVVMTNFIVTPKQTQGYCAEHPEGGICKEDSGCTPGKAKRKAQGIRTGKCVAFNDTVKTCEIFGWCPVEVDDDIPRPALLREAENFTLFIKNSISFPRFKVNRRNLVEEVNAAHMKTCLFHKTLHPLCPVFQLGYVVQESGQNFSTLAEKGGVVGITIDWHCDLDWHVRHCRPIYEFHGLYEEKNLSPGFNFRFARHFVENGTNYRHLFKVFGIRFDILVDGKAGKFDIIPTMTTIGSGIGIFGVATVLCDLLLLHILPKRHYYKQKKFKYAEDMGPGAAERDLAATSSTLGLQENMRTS

[4] = target: T4, P2X purinoceptor 7 (Homo sapiens, UniProt Q99572); experiment: Antagonist activity at human P2X7 receptor expressed in HEK293 cells assessed as inhibition of BzATP-induced EtBr uptake measured after 2 hrs by fluorescence analysis; type: cell-based
T4 sequence (Q99572 whole entry): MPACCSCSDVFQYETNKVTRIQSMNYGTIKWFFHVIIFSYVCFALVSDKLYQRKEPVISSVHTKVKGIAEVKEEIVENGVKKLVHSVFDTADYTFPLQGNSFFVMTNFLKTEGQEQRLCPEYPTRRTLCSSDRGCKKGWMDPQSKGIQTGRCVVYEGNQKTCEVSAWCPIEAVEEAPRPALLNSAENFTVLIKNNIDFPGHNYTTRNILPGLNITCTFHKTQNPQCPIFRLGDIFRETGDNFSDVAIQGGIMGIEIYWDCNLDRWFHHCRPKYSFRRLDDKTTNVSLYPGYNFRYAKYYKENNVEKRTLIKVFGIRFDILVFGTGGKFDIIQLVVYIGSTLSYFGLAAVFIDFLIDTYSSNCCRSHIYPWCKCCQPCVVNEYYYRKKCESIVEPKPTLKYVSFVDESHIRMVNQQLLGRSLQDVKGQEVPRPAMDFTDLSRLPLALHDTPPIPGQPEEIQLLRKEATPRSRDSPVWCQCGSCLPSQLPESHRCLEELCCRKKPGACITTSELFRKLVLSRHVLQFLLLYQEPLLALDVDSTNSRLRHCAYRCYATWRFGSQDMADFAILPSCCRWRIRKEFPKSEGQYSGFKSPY

[5] = target: T5, P2X purinoceptor 4 (Homo sapiens) (UniProt Q99571); experiment: Antagonist activity at human P2X4 receptor expressed in human 1321N1 cells assessed as inhibition of ATP-induced calcium influx at 1 uM preincubated for 30 mins prior to ATP-stimulation by calcium influx assay; type: cell-based
T5 sequence (whole entry): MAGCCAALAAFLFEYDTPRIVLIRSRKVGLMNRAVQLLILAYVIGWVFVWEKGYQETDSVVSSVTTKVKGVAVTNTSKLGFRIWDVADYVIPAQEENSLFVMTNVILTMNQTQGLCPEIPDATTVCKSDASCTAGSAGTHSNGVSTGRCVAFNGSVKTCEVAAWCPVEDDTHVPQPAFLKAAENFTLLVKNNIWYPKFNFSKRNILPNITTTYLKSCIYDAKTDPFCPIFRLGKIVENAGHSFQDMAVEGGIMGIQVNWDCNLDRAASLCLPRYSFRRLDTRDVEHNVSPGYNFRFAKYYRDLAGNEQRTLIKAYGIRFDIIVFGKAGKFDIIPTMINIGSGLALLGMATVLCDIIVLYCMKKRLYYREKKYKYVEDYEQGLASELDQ

[6] = tested on: MDA-MB-231; experiment: Antimigratory activity against human MDA-MB-231 cells xenografted in zebrafish assessed as inhibition of cell dissemination and invasion at 10 uM measured after 4 days by fluorescence microscopic analysis relative to control; type: functional, cell-based
[7] = target: T4, P2X purinoceptor 7; experiment: Antagonist activity at human P2X7 receptor in LPS/IFN-gamma-differentiated human THP-1 cells assessed as suppression of BzATP-stimulated IL-1beta release per-incubated for 30 mins before BzATP addition and measured after 30 mins by ELISA; type: cell-based
[8] = tested on: MDA-MB-231; experiment: Antiinvasive activity against human MDA-MB-231 cells measured after 48 hrs by transwell invasion assay; type: functional, cell-based; settings: MDA-MB-231, 48 h
[9] = target: T4, P2X purinoceptor 7; experiment: Antagonist activity at human P2X7 receptor
[10] = target: T6, P2X purinoceptor 3 (Homo sapiens, UniProt P56373); experiment: Antagonist activity at human P2X3 receptor expressed in human 1321N1 cells assessed as inhibition of ATP-induced calcium influx preincubated for 30 mins prior to ATP-stimulation by calcium influx assay; type: cell-based
T6 sequence (P56373 whole entry): T2 sequence (whole entry)

[11] = target: T7, P2X purinoceptor 2 (Homo sapiens, UniProt Q9UBL9); experiment: Antagonist activity at human P2X2 receptor expressed in human 1321N1 cells assessed as inhibition of ATP-induced calcium influx preincubated for 30 mins prior to ATP-stimulation by calcium influx assay; type: cell-based
T7 sequence (Q9UBL9 whole entry): T1 sequence (whole entry)

[12] = target: T5, P2X purinoceptor 4 (Homo sapiens); experiment: Antagonist activity at human P2X4 receptor expressed in human 1321N1 cells assessed as inhibition of ATP-induced calcium influx at 10 uM preincubated for 30 mins prior to ATP-stimulation by calcium influx assay; type: cell-based
[13] = target: T8, P2X purinoceptor 1 (Rattus norvegicus, UniProt P47824); experiment: Antagonist activity at P2X1 receptor in rat vas deferens assessed as inhibition of alpha/beta-meATP-induced calcium influx
T8 sequence (P47824 whole entry): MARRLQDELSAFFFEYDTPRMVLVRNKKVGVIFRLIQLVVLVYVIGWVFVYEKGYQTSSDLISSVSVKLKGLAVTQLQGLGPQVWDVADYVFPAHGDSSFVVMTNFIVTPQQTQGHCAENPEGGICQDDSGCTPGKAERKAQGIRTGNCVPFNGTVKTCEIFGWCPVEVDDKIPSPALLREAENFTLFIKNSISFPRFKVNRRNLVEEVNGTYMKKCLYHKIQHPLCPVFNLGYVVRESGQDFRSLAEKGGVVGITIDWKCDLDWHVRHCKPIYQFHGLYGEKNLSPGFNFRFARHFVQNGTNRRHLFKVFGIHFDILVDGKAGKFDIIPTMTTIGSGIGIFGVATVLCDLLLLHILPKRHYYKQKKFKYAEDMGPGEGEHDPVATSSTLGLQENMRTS

[14] = species: Homo sapiens; experiment: Selectivity ratio, ratio of IC50 for human P2X3 receptor expressed in human 1321N1 cells to human P2X7 receptor expressed in HEK293 cells; type: cell-based
[15] = Toxicity in zebrafish assessed as induction of teratogenic developmental toxicity at 10 uM; set-up: species or system Danio rerio; settings: in vivo
[16] = tested on: MDA-MB-231; experiment: Cytotoxicity against human MDA-MB-231 cells assessed as reduction in cell viability at 10 uM measured after 48 hrs by WST-1 cell viability assay; type: cell-based; settings: mda-mb-231, 48 h
[17] = tested on: MDA-MB-231; experiment: Cytotoxicity against human MDA-MB-231 cells assessed as reduction in cell viability at 2.5 to 10 uM measured after 48 hrs by WST-1 cell viability assay; type: cell-based; settings: mda-mb-231, 48 h
[18] = target: T9, P2X purinoceptor 3 (Rattus norvegicus, UniProt P49654); experiment: Antagonist activity at P2X3 receptor in Wistar rat DRG neurons assessed as inhibition of alpha/beta-meATP-induced currents preincubated for 5 mins prior to alpha/beta-meATP-stimulation measured at every sec for 5 mins by whole cell patch-clamp assay
T9 sequence (P49654 whole entry): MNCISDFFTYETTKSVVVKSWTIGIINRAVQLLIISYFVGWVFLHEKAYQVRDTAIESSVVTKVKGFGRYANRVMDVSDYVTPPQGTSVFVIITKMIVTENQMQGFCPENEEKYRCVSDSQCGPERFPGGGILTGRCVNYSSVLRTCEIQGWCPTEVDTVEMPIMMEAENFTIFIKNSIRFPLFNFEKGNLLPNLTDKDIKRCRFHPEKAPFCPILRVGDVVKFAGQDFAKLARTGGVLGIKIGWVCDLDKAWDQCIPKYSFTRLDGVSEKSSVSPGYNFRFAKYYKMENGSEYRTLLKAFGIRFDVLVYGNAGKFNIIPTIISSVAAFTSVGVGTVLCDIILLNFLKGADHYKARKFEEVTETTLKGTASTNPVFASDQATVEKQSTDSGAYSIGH

SMILES | inhibition [1] | inhibition [3] | IC50 [4] | inhibition [5] | inhibition [6] | IC50 [7] | IC50 [8] | IC50 [10] | Ratio IC50 [14] | Activity [15] | other results
CS(=O)(=O)c1ccc(C(=O)N2CCC(c3nc4cc(OS(=O)(=O)c5cccc6cnccc56)ccc4[nH]3)CC2)cc1 | 7% | 16% | 7 nM | 15% | inactive | 43 nM |  |  |  |  | inhibition [2]: 3%
O=C(NCC12CC3CC(CC(C3)C1)C2)c1cc(CCCNCCCO)ccc1Cl |  |  |  |  | Active | 0.06 nM | 8700 nM |  |  |  | IC50 [9]: 10 to 13 nM
O=C1NC(=O)N(C2CCN(C(=O)c3ccc(Cl)c(C(F)(F)F)c3)CC2)C1Cc1ccc(OS(=O)(=O)c2cccc3cnccc23)cc1 (stereo not given) | 5% | 28% |  | 0% |  | 54 nM |  | 600 nM |  |  | 
COc1ccc(CC(=O)NC(N/C(=N/C#N)Nc2cccc3ncccc23)C(C)(C)C)cc1OC (stereo not given) |  |  |  |  |  |  |  |  |  |  | IC50 [9]: 90 nM
Nc1c(S(=O)(=O)O)cc(Nc2ccc(S(=O)(=O)O)c(Nc3nc(Cl)nc(Cl)n3)c2)c2c1C(=O)c1ccccc1C2=O |  |  |  |  |  |  |  |  |  |  | IC50 [11]: 692 nM; inhibition [12]: 3%
Cc1ccc(C(=O)Nc2ccc(S(=O)(=O)O)c3cc(S(=O)(=O)O)cc(S(=O)(=O)O)c23)cc1NC(=O)c1cccc(NC(=O)Nc2cccc(C(=O)Nc3cc(C(=O)Nc4ccc(S(=O)(=O)O)c5cc(S(=O)(=O)O)cc(S(=O)(=O)O)c45)ccc3C)c2)c1 [SURAMIN] |  |  |  |  |  |  |  |  |  |  | IC50 [13]: 4680 nM
CN(C)c1ccc(C(=O)N2CCC(n3cncc3-c3ccc(OS(=O)(=O)c4cccc5cnccc45)cc3)CC2)cc1 | 11% | 26% | 0.11 nM | 15% | Active | 2.19 nM | 2680 nM | 800 nM | 1000 to 7000 | Non-Toxic | Activity [16]: 71%
CN(C)c1ccc(C(=O)N2CCN(c3cc(=O)[nH]c(=O)n3Cc3ccc(OS(=O)(=O)c4cccc5cnccc45)cc3)CC2)cc1 | 2% | 23% | 1.53 nM | 6% | Active | 1.33 nM | 2590 nM | 2660 nM | 1000 to 7000 | Non-Toxic | Activity [17]: Non-Toxic
O=C(Nc1cc(C(=O)Nc2ccc(S(=O)(=O)O)cc2)cc(C(=O)Nc2ccc(S(=O)(=O)O)cc2)c1)Nc1cc(C(=O)Nc2ccc(S(=O)(=O)O)cc2)cc(C(=O)Nc2ccc(S(=O)(=O)O)cc2)c1 |  |  |  |  |  |  |  | 1580 nM |  |  | IC50 [18]: 527 nM
CN(C)c1ccc(C(=O)N2CCC(n3cncc3-c3ccc(OS(=O)(=O)c4cccc(C(=O)NC5CC5)c4)cc3)CC2)cc1 | 7% | 22% | 0.49 nM | 7% | Active | 1.03 nM | 3630 nM | 910 nM | 1000 to 7000 | Non-Toxic | Activity [17]: Non-Toxic
